Series [1] can be described thus: Example 3: tolerability (clinical and laboratory abnormalities) in HCV-infected subjects. It counts as in vivo, human. As to conditions: 50-300 mg QD x 7 days. The text has this:
(§1) This part was a randomized, double-blind, placebo-controlled, parallel group study in treatment-naïve, Genotype 1 HCV-infected subjects. Thirty (30) subjects were randomized across the treatment arms specified below.
(§2) This part were a randomized, open-label, parallel group study in treatment-naïve, Genotype 2, 3, 4, 5 and 6 HCV-infected subjects. Thirty (30) subjects were randomized across the treatment arms specified below.
(§3) Dosing, sampling, and analyses for Parts I and II were made according to Tables A and B.

In another series the test system is genotype 2 or 3 HCV. Kind of series: Example 3 Part II: Compound I QD x 7 days in treatment-naïve Genotype 2, 3, 4, 5 and 6 HCV-infected subjects, viral load (HCV RNA). It counts as in vivo. Particulars: 300 mg/day for 7 days. The protocol: as §2, §3
Compound I was provided as size 0, white, hard hydroxypropyl methylcellulose (HPMC) capsules for oral administration at 5 mg, 25 mg and 50 mg strengths. The same powder blend containing 33.3% weight/weight (w/w) Compound I, a diluent, and a disintegrant is used to fill the capsules for all dose strengths. Matching placebo capsules will also be provided. Storage conditions will be provided on the study drug container label.
Dosing occurred between approximately 08:00 AM and 10:00 AM on each dosing day. Water was permitted ad libitum except for 1 hour before and after dosing. Dosing was immediately followed by administration of 240 mL (8 oz.) of water. Meals and beverages served within 24 hours prior to and post dosing were xanthine-free and caffeine-free. Grapefruit and grapefruit juice were not allowed within 7 days before reporting to the clinic on Day −1 and through the end of the study.

The next series has as its system HCV. Put plainly: Example 3 Parts I and II: antiviral activity across genotypes. It counts as in vivo. Particulars: HCV-infected subjects, 50-300 mg QD x 7 days.
Text: as §1, §2, §3

The structures appear in SMILES notation.

For the compound `CC(C)OC(=O)[C@@H](C)N[P@@](=O)(OC[C@H]1O[C@@H](n2ccc(=O)[nH]c2=O)[C@](C)(Cl)[C@@H]1O)Oc1ccccc1` [Compound I], in series [1], the tolerability result is “well-tolerated with no observed patterns of clinical or laboratory abnormalities”. Further, the “response in genotype 2 versus genotype 3 HCV infection” value in the series on genotype 2 or 3 HCV was “similar”. Besides, the “mean maximal viral load reduction” value in the series with genotype 2 or 3 HCV (10 genotype 2 or 3 HCV-infected patients) came out at 4.3 logs. The “antiviral activity across genotypes” value in the series on HCV is “potent pan-genotypic activity in a dose-dependent manner”.

The values are drawn from US20170066795A1, “SOLID PRODRUG FORMS OF 2'-CHLORO-2'-METHYL URIDINE FOR HCV” (IDENIX PHARMACEUTICALS LLC, priority 2014, published 2017).
